Tests used:
[1] = system: NK cells; type: in vivo, ddY mice; details: mice administered intraperitoneally
Procedure: ddY mice (female, 7 weeks old) were purchased from Japan SLC and pre-bred for 1 week before using in experiments.
1×10^6 Ehrlich ascites carcinoma cells were intraperitoneally inoculated to each mouse. 10 mg/kg of cyclopentenone, 30 mg/kg of GM or 10 mg/kg of dipropionylcyclopentenone was intraperitoneally administered to the mouse on the day after the inoculation. Saline was administered to a control mouse.
A spleen was taken out from the mouse 10 days after the inoculation with cancer cells, finely minced and suspended in RPMI-1640 medium containing 10% FCS (HyClone) to obtain a single cell suspension. Adhesive cells adhered to a plastic Petri dish were removed from the cell suspension and non-adhesive cells were used as NK cells.
The NK cells were suspended in RPMI-1640 medium containing 10% FCS at a concentration of 6×10^6/ml. 100 μl/well of the suspension was seeded into a microtiter plate.
Target cells were prepared as follows. 3700 kBq of ^51Cr (Amersham) was added to 1×10^6 YAC-1 cells (Dainippon Pharmaceutical). The cells were cultured at 37° C. for 1 hour for labeling. The labeled cells were washed twice and then suspended in RPMI-1640 medium containing 10% FCS at a concentration of 2×10^5 cells/ml. […] The radioactivity (experimental value) was measured using an auto gamma counter.
100 μl of the culture medium was added to the reaction system in place of the NK cells and the radioactivity was measured in order to measure the radioactivity spontaneously released from the target cells (control value).
Furthermore, the radioactivity released into the supernatant when 1% Triton (Nacalai Tesque) was added to the reaction system to lyse the 51Cr-labeled YAC-1 cells was measured in order to measure the total radioactivity contained in the reaction system (total radioactivity value).
The cytotoxicity (%) specifically mediated by the NK cells can be determined according to the following equation.
Cytotoxicity (%)=[(experimental value−control value)/(total radioactivity value−control value)]×100

[2] = system: Meth A; experiment: Ascitic cancer Meth A, prolongation of survival, 5 successive days; type: in vivo, BALB/c mouse; details: for 30-day survival number: groups of 8 mice
Procedure: (§1) (3) The carcinostatic activities of dipropionylcyclopentenone and diisobutyrylcyclopentenone against various ascitic cancers were examined using two types of cancer cells, Ehrlich ascites carcinoma (EAC) and Meth A, administered intraperitoneally or orally at a varying dose.
(§2) Dipropionylcyclopentenone or diisobutyrylcyclopentenone was intraperitoneally or orally administered for 5 successive days from the day after the transplantation with cancer cells. Injectable distilled water was administered to a control group in a similar manner. Average days of survival, prolongation rate and 30-day survival number were calculated for groups each consisting of 8 mice.

[3] = system: Ehrlich ascites carcinoma (EAC); experiment: Ascitic cancer EAC, prolongation of survival; type: in vivo, ddY mouse; details: 5 successive days; for 30-day survival number: groups of 8 mice
Procedure: as §1, §2

[4] = Single oral dose toxicity; type: in vivo; details: mouse, oral, single dosage of 100 mg/kg
Procedure: No toxicity is observed when a physiologically effective amount of the cyclopentenone derivative or an optical isomer thereof, or a salt thereof obtained according to the present invention is administered.

[5] = system: mixed spleen lymphocytes (BALB/c and C57BL/6); experiment: Mixed lymphocyte reaction, 3H-thymidine uptake; type: cell-based, mouse; details: 1 μM
Procedure: (2) Spleens were taken out from a BALB/c mouse (male, 6 weeks old, purchased from Japan SLC) and a C57BL/6 mouse (male, 6 weeks old, purchased from Japan SLC) and spleen lymphocytes were obtained according to the method as described in Example 11-(1). The concentration of each of the cell suspensions was adjusted to 2×10^6 cell/ml, 100 μl portions from respective suspensions were mixed together and seeded into a 96-well microtiter plate. Dipropionylcyclopentenone at a varying concentration was added to the wells other than the control well, and the plate was incubated at 37° C. for 4 days in a CO2 incubator. After incubation, 1 μCi of ^3H-thymidine was added to each well, and the plate was incubated for additional 1 day. The uptake into cells was measured using a liquid scintillation counter.
FIG. 8 illustrates the relationship between the concentration of dipropionylcyclopentenone and the amount of ^3H-thymidine uptake. The horizontal axis represents the dipropionylcyclopentenone concentration (μM) and the vertical axis represents ^3H-thymidine uptake (CPM). The open bar represents the ^3H-thymidine uptake when cells from one of the lines were used independently. The shaded bar represents the ^3H-thymidine uptake when cells from both of the lines were mixed together.

[6] = system: spleen lymphocytes stimulated with Con A; experiment: Lymphocyte blastogenesis stimulated with Con A, 3H-thymidine uptake; type: cell-based, ddY mouse; details: 10 μM
Procedure: (1) A spleen was taken out from ddY mouse (male, 7 weeks old, purchased from Japan SLC), finely minced and suspended in RPMI-1640 medium containing 10% FCS (HyClone) to obtain a single cell suspension. The cell suspension was seeded into a plastic Petri dish and cultured at 37° C. for 2 hours in a CO2 incubator to remove adhesive cells adhered to the dish. Non-adhesive cells were used as spleen lymphocytes. 200 μl of suspension of the spleen lymphocytes at a cell concentration of 2×10^6/ml was seeded into each well of a 96-well microtiter plate. Dipropionylcyclopentenone at a varying concentration was added to each well other than the control well. Furthermore, 5 μg of Con A (Nacalai Tesque) was added to each well. The plate was incubated at 37° C. for 1 day in a CO2 incubator. After incubation, 1 μCi of ^3H-thymidine was added to each well. After culturing for additional 1 day, the uptake into cells was measured using a liquid scintillation counter.
FIG. 7 illustrates the relationship between the concentration of dipropionylcyclopentenone and the amount of ^3H-thymidine uptake. The horizontal axis represents dipropionylcyclopentenone concentration (μM) and the vertical axis represents the ^3H-thymidine uptake (CPM). The open bar represents the ^3H-thymidine uptake without stimulation.

[7] = system: Mouse leukemia P-388; experiment: Survival of mice given mouse leukemia P-388; type: in vivo, DBA/2 mouse; details: P-388, single dose 10 mg/kg intraperitoneal
Procedure: (1) Mouse leukemia P-388 (1.1×10^6 cells/mouse) was intraperitoneally administered to a 7-weeks old female DBA/2 mouse. Immediately after the administration, a single dose of 10 mg/kg dipropionylcyclopentenone was intraperitoneally administered. On the other hand, saline was intraperitoneally administered to a control group in a similar manner. Survival number of mice, average days of survival and prolongation rate were calculated for 2 groups each consisting of 8 mice.

SMILES: CCC(=O)OC1C=CC(=O)C1OC(=O)CC (stereo not drawn)
- Activation of NK cells (statement) [1]: Activation of NK cells was observed
- Average days of survival ([2]; intraperitoneal 10 mg/kg): 20.5 days
- Prolongation rate ([2]; intraperitoneal 10 mg/kg): 174%
- 30-day survival number ([2]; intraperitoneal 10 mg/kg): 0
- Average days of survival ([2]; oral 30 mg/kg): 17.3 days
- Prolongation rate ([2]; oral 30 mg/kg): >147%
- 30-day survival number ([2]; oral 30 mg/kg): 2
- Average days of survival ([3]; intraperitoneal 10 mg/kg): 28.1 days
- Prolongation rate ([3]; intraperitoneal 10 mg/kg): >225%
- 30-day survival number ([3]; intraperitoneal 10 mg/kg): 6
- Average days of survival ([3]; oral 30 mg/kg): 24.1 days
- Prolongation rate ([3]; oral 30 mg/kg): >193%
- 30-day survival number ([3]; oral 30 mg/kg): 4
- Death after single oral administration [4]: no death was observed
- Inhibition of mixed lymphocyte reaction (FIG. 8) [5]: almost completely inhibited
- Inhibition of proliferation of mouse lymphocytes stimulated with Con A (FIG. 7) [6]: almost completely inhibited
- Average days of survival [7]: 13.9 days
- Prolongation rate [7]: 137.0%
